From a melting point compilation (Tetko et al.; mined from patent text by program, amines drawn as free bases though some values may be those of a salt)

melting point [°C]	Structure (SMILES)
74 to 75	CCOC(=O)c1c(Cl)c(Cl)c(Cl)c(Cl)c1C#N
127 to 129	COC(=O)COc1ccc(OCC2CCN(c3ccncc3)CC2)cc1
132 to 134	COc1ccc(Nc2nc(NC3CCCCCC3)nc(Oc3ccc(C#CC(C)(C)O)cc3)n2)cc1Cl
121	COC(=O)C(c1ccc(Cl)cc1)c1c(Cl)cc(-n2ncc(=O)[nH]c2=O)cc1Cl (stereo not drawn)
68 to 70	C=CCONC(=O)n1nc(Oc2c(Cl)cc(C(F)(F)F)cc2Cl)cc1C
199 to 201	CC1=CC(c2ccc(Cl)c(Cl)c2)C2=C(CCCC2=O)N1 (stereo not drawn)
98 to 100	COc1cc2c(cc1C)CCN=C2C1(c2ccco2)CC1
165	CCOC(=O)C1=C(N)NC2=C(C(=O)CCC2)C1c1ccccc1C#N (stereo not drawn)
78 to 82	C[C@@H](c1ccc(F)cc1)N1Cc2cncn2C(C)(c2ccc(C#N)cc2)C1=O (stereo partly drawn)
286 to 287	O=C(O)c1ccc(-c2noc(-c3ccc(C(F)(F)F)cc3)n2)cc1
247 to 249	O=C1OC2(CCN(C(=O)Nc3ncc(-c4ccccc4)cn3)CC2)c2cccc(F)c21
68 to 70	CCOC(=O)C(C)(C)Oc1ccc(C=CC(=O)c2ccccc2)cc1
166 to 167	Cc1nn(CC(C)(C)O)c(-c2ccc(F)cc2)c1-c1ccc2c(c1)NC(=O)CO2
128 to 129	CCOC(=O)c1cccc(-c2c(OC)cccc2C(=O)O)c1
158 to 160	CN(C)C(=S)C1CC(C)(C)Oc2ccc([N+](=O)[O-])cc21 (stereo not drawn)
62 to 65	COC(=O)c1cc(OC)c(OCc2ccccc2)c(OC)c1
108	COc1cc(SC)ccc1C(=O)c1cnoc1C1CC1
28 to 29	CCc1cc([N+](=O)[O-])c(NC(CC)CC)c([N+](=O)[O-])c1COC
112 to 115	CCCCCCCCCCCCCCOc1ccc(C(=O)Nc2cccc(CO)c2)cc1
102	Clc1ncc(Cl)n2ccnc12
120 to 123	COc1ccc(C(O)CN(Cc2ccccc2)Cc2ccccc2)cc1C(N)=O (stereo not drawn)
118	CC1C(=O)N(CC(N)=O)C(C)(C)N1C(=O)CN (stereo not drawn)
114	Cc1ccc(N(c2ccc(-c3ccccc3)cc2)c2ccc(C)c(C)c2)cc1C
207	O=C(Nc1ccccc1S(=O)(=O)N1CCCCC1)N[C@@H](Cc1ccc(Nc2nccc3cnccc23)cc1)C(=O)O
165 to 168	CN(C)CCNS(=O)(=O)c1ccc(O)cc1
109 to 110	C=C(C)Cc1c(C)c(OC(C)=O)c(C)c(C)c1O
148 to 150	COc1cc(F)ccc1CCN1c2nc(-c3ccncn3)cc(=O)n2CCC1C (stereo not drawn)

melting point [°C]	Structure (SMILES)
206 to 222	COc1cc(Nc2c(C#N)cnc3cc4cc(OCCN5CCOCC5)c(OC)cc4cc23)c(Cl)cc1F
180 to 184	Oc1ccc([C@H]2CC[C@H](NCCNc3ccccc3)CC2)cc1
123 to 125	O=c1oc(-c2ccc(OCCO)cc2)cc(O)c1SCCc1ccccc1
46 to 47	CCCCc1cc2cccnc2[nH]1
196	CCC(CC)n1ccn(-c2ccc(N3CCN(c4ccc(OC)cc4)CC3)cc2)c1=O
66 to 68	COc1cccc(Oc2ncccc2C#N)c1
121 to 124	COC(=O)c1ccc(SC(Cn2ccnc2)c2ccc(Cl)cc2Cl)cc1 (stereo not drawn)
136 to 138	Oc1ccc(CN[C@H]2CC[C@@H](C(c3ccccc3)c3ccccc3)OC2)cc1 (relative stereo)
136 to 138	CC(O)=C(C#N)C(=O)Nc1cccc(F)c1
213 to 215	N#CC(N)=C(C#N)N=Cc1cnn(-c2c(F)cc(F)cc2F)n1
106 to 108	COC(=O)c1ccc(S(=O)(=O)C[N+](=O)[O-])cc1
186 to 188	OCCn1cc(C(F)(F)F)nc1-c1ccc(O)cc1
185 to 186	COc1ccc2c(c1)CCC(=O)NC2c1ccccc1 (stereo not drawn)
197 to 198	CO[C@@H](Cc1ccc(OCCc2nc(-c3cc(C)cc(C)c3)oc2C)c2ccccc12)C(=O)O
140	CCOC(=O)c1cnc2c(cnn2Cc2ccncc2)c1O
172 to 175	O=C(Cn1ncc2cc(/C=C/C(c3cc(Cl)c(F)c(Cl)c3)C(F)(F)F)ccc2c1=O)NCC(F)(F)F (stereo not drawn)
85	CSc1nc(SC)c2ccccc2n1
45	COc1c(NC2CCC3(CC2)OCC(C)(C)CO3)ccnc1C
280 to 282	CCCn1c(=O)c2[nH]c(-c3ccc4c(c3)OCCO4)nc2n(CCC)c1=O
132	O=C(Nc1cccc(Oc2ccccn2)c1)c1ccn2c1CSC2c1cccnc1 (stereo not drawn)
238 to 240	O=C(O)N1C=CC=NC=C1
230 to 232	CC(C)n1cnc2nc(-c3ccc(Cl)cc3)nn2c1=S
178	CCc1ncnc(NC2CCc3cc(O)ccc3C2)c1Cl (stereo not drawn)
149 to 151	CC(=O)OC1CSC(Oc2cccc3oc(C)nc23)C(OC(C)=O)C1OC(C)=O (stereo not drawn)
239 to 240	CC(=O)c1nc(-c2ccc(Cl)nc2)[nH]c1C
139 to 141	CC(Oc1ccc(Oc2cnc3cc(Cl)ccc3n2)cc1)C(=O)Nc1ccc(OC(F)(F)C(Cl)(Cl)Cl)cc1 (stereo not drawn)
35 to 37	Cc1cc(Br)cnc1CCCCN

Continued, compound first:

Structure (SMILES)	melting point [°C]
CC(C)(C)n1nnc(NC(=O)C(c2ccccc2)c2ccccc2)n1	191 to 192
Cn1cc(C(F)(F)F)c(C(=O)O)c1F	190 to 191
C[C@@H]1N=C(c2ccccc2Cl)c2ccsc2NC1=O	200
COCCCCC(=O)c1cc(C(=O)O)c2cc(Cc3ccc(F)cc3)cnc2c1O	216 to 218
COc1ccccc1C(=O)NN=C(CC(C)C)c1ccncc1	130
CC(C)(C)OC(=O)N1CCC(COc2ccc(C=NO)cc2)CC1	140 to 142
CCCC(=O)Oc1cc2c(s1)CCN(C(C(=O)C1CC1)c1ccccc1F)C2 (stereo not drawn)	84 to 85
COCCOC(=O)Nc1cccc(C)c1COc1cccn2c(C)c(C)nc12	107 to 108
CC(C)c1cccc(C(C)C)c1NC(=O)N(Cc1ccc(N(C)C)cc1)c1ccc(C(F)(F)F)cc1	129 to 130
O=C(NC1N=C(c2ccccc2F)c2ccccc2-n2cnnc21)c1cc2ccccc2[nH]1 (stereo not drawn)	291
Fc1ccc2c(c1)nc(C(F)(F)C(F)(F)F)n2C1CCNCC1	177 to 178
CCCOc1nc2ccccc2[nH]1	163 to 164
O=C(O)CNC(=O)CCCC1CCCCC1	85 to 88
Cn1nc(Cl)c(Cl)c1S(=O)(=O)CCCl	56 to 59
CC(=O)N1CC(=O)NC(Cc2cccc(NC(=O)OC(C)(C)C)c2)C1=O (stereo not drawn)	189 to 190
CCOC(=O)c1nc(Nc2ccccc2)sc1-c1ccncc1	167 to 169
O=C(c1ccncc1)c1cc(-c2ccc(Cl)cc2)c(N2CCOCC2)s1	117
O=c1cc(-c2ccc(OCc3ccccc3)c(OCc3ccccc3)c2)oc2cc(OCC3CO3)ccc12 (stereo not drawn)	168 to 170
Cc1cccc2c1N(CCN(C(C)C)C(C)C)C(=O)/C2=N/NC(N)=O	194 to 195
CC(=O)SCCC(=O)N(C)C	118 to 121
O=CNCC1CCc2ccccc2N(C=O)C1 (stereo not drawn)	128
CCCOc1ccccc1-c1nc2nc(NCC(=O)OCC)ncc2c(=O)[nH]1	174 to 176
Oc1cccc(CN2CCOCC2)c1	113 to 115
CN(C)c1noc(-c2ncn3c2COc2cc(F)ccc2-3)n1	239 to 240
Nc1ccc(S(=O)(=O)N2CCCC(c3ccc(Cl)c(C(F)(F)F)c3)=N2)cc1	205 to 206

Structure (SMILES)	melting point [°C]
O=C(O)c1cc2cc(Cl)c(Cl)cc2nc1N[C@H](Cc1c[nH]c2ccccc12)C(=O)O	> 250
Cc1cc(CCC(=O)c2ccc(-c3ccc(C(F)(F)F)cc3)s2)ccc1OC(C)(C)C(=O)O	130 to 131
Cc1cc(-n2ccc(CCc3ccccc3)cc2=O)sc1C(=O)NCc1ccccc1	145 to 146
O=C1CC2O/C(=C/C3(C(=O)OCc4ccccc4)C=CC=CC3)CN12 (stereo not drawn)	120 to 121
NC(c1ccccc1)C12CC(CN1)C2 (stereo not drawn)	46.5 to 47
O=C1NCC2(CCN(Cc3ccccc3)CC2)O1	159 to 161
OCC12CO[C@@H](c3ccc(C(F)(F)F)cc3)N1[C@H](c1ccc(C(F)(F)F)cc1)OC2	120
O=C(O)C1CCCN(C(=O)c2cccc(C(=O)C3CCC4(CCNCC4)CC3)c2)C1 (stereo not drawn)	146 to 148
O=C(Nc1cc(C(F)(F)F)ccc1Cl)Nc1cc(Cl)cc(Br)c1O	261 to 274
CC(C)(C)OCC(NC(=O)c1ccc2c(Cl)cnc(Cl)c2c1)C(=O)OC(C)(C)C (racemic)	116 to 117
CCCCCCCCCCCCNC(=O)Oc1ccc2oc3ccccc3c2c1	112 to 114
COc1ccc(N2CCN(CCOCc3ccccc3)C2=O)cc1	54 to 55
O=C1c2ccccc2-n2cnc(-c3cccc(Cl)c3)c2[C@@H]2CCCN12	242 to 243
CCOCCOc1ccc(OCC(O)CNCCNC(=O)N2CCOCC2)cc1 (stereo not drawn)	75 to 77
CCCCC(=O)Nc1c(C(=O)OC)cc(C)cc1[N+](=O)[O-]	59 to 60
CCCCCCCCCCCCCC(=O)NC1CC(C)(C)N(CC#N)C(C)(C)C1	106
COC(=O)Nc1nc2ccc(OS(=O)(=O)c3cccc(OC(F)(F)C(F)F)c3)cc2[nH]1	186
CC(=O)N1CCC(C)(C)c2cc(/C(C)=C/c3ccc(C(=O)O)cc3)ccc21	200 to 202
Cc1[nH]c(/C=C2\C(=O)Nc3ccc(F)cc32)c(C)c1C(=O)NCCCCCC(=O)NO	210
O=c1[nH]c2ccccc2c2c(C(O)CC3CCNCC3)n(-c3ccccc3)nc12 (stereo not drawn)	258 to 261
Cc1nc2c3c(ccc2n1C)C(O)C(OC(=O)C(C)(C)C)C(c1ccccc1)O3 (stereo not drawn)	148
Cc1ccc(C#CC#Cc2ccc(C)cc2)cc1	182 to 183
CCOC(=O)c1ccc(Cl)nc1NCc1ccc(OC)c(Cl)c1	108 to 112
Cc1cc2c(cc1Cl)C(CC(=O)O)(c1ccccc1OC(C)C)C(=O)N2 (stereo not drawn)	148 to 150
